What all share (type): biochemical
The target in one assay is T1, human plasma kallikrein (Homo sapiens, UniProt P03952).
T1 construct: purchased Kabi Co
Briefly: Assay for inhibitory activity against kallikrein (synthetic substrate S-2302). To be noted: for IC50: S-2302, pH 8.0, 37° C. From the text:
(§1) As synthetic substrate used to examine the activity of the inhibitor for inhibiting substrate decomposition with the enzyme, there were used PS-994 (H-D-Lys(Tos)-Phe-Lys-CHA.2HCl, manufactured by Nitto Boseki Co., Ltd.) for plasmin, PS-915 (H-D-Phe-Pro-Arg-CHA.2HCl, manufactured by Nitto Boseki Co., Ltd.) for thrombin and trypsin, PS-2000 (Z-D-Lys(HCO)-Gly-Arg-CHA.HCl, manufactured by Nitto Boseki Co., Ltd.) for factor Xa, S-2302 (H-D-Pro-Phe-Arg-pNA, manufactured by Kabi Co.) for kallikrein, and MUK-34: [drawing 5] for urokinase.
(§2) As plasmin, thrombin, trypsin, factor Xa, kallikrein and urokinase, there were used 0.3 CU/ml of Sankyo Color Test α2 -PI Assay Kit Standard, 1.2 NIH U/ml of Sankyo Color Test ATIII Assay Kit, 2 μg/ml of Code 3703 manufactured by Worsingstone Co., 0.25 U/ml of human factor Xa manufactured by Boehringer Mannheim, 0.12 U/ml of human plasma kallikrein manufactured by Kabi Co., and 1000 U/ml of Mochida Pharmaceutical Urokinase 60,000 (60,000 U/vial), respectively. In the case of CHA type substrate, a color-forming termination solution for Sankyo Color Test Kit was used. Enzyme reactions were carried out at 37° C.
Assay For Inhibitory Activity Against Kallikrein
To 0.4 ml of buffer (150 mN sodium chloride aqueous solution containing 50 mM Tris, pH 8.0) was added 0.1 ml each of aqueous solutions of the inhibitor having various concentrations and the mixture was heated for 5 minutes. Then, 0.1 ml of kallikrein solution (containing 0.5% bovine serum albumin, No. A-8022 of Sigma Co.) was added thereto, and the mixture was reacted for 5 minutes. Furthermore, 10 mM S-2302 aqueous solution (0.1 ml) was added thereto, and the mixture was again reacted for 5 minutes. Then, 5 ml of 20% acetic acid aqueous solution was added to terminate the reaction. Absorbance was measured at 405 nm and IC50 was determined by the method described above.

A further assay deals with T2, trypsin (Bos taurus, UniProt P00760).
T2 construct: purchased Worsingstone Co. (so in the source)
T2 sequence (P00760 24-246): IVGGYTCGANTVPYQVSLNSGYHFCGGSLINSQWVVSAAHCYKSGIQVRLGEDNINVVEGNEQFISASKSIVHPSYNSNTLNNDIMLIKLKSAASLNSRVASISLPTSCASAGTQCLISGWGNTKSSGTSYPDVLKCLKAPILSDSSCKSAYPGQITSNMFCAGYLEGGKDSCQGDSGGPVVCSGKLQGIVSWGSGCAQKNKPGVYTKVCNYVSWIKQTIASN
Put plainly: Assay for inhibitory activity against trypsin (synthetic substrate PS-915). To be noted: for IC50: PS-915, pH 8.0, 37° C.
Excerpt: as §1, §2
Assay For Inhibitory Activity Against Trypsin
After 0.1 ml of an aqueous solution of the inhibitor was added to 0.5 ml of buffer (150 mM sodium chloride aqueous solution containing 150 mM Tris, pH 8.0) and the mixture was heated for 5 minutes, 0.1 ml of trypsin solution was added thereto. The mixture was reacted for 5 minutes. Furthermore, 0.1 ml of PS-915 solution (10 mM) was added thereto. The mixture was again reacted for 5 minutes. Then, 2 ml of the color-forming termination solution [containing 2.5 mg/ml of soybean trypsin inhibitor (manufactured by Sigma Co., No. T-9003)] was added to the reaction mixture. Then the mixture was allowed to stand for 10 minutes and absorbance was measured at 700 nm. IC50 was determined by the method described above.

Another assay concerns the target T3, human factor Xa (Homo sapiens, UniProt P00742).
T3 construct: purchased Boehringer Mannheim
Put plainly: Assay for inhibitory activity against factor Xa (synthetic substrate PS-2000). To be noted: for IC50: PS-2000, pH 8.5, 37° C.
Excerpt: as §1, §2
Assay For Inhibitory Activity Against Factor Xa
To 0.3 ml of buffer (150 mM sodium chloride aqueous solution containing 50 mM Tris, pH 8.5) was added 0.1 ml each of an aqueous solution of the inhibitor having various concentrations. The mixture was heated for 5 minutes. Then, 0.1 ml of factor Xa solution (150 mM solution chloride aqueous solution containing 50 mM Tris and 20 mM calcium chloride, pH 8.5) was added thereto, and the mixture was reacted for 5 minutes. Furthermore,5% polyvinylpyrrolidone solution (0.1 ml) containing 10 mM PS-2000 was added thereto, and the mixture was again reacted for 5 minutes. Then, 2 ml of the color-forming termination solution was added to the reaction mixture. Then the mixture was allowed to stand for 10 minutes and absorbance was measured at 700 nm. IC50 was determined by the method described above.

For the next assay, the target named is T4, urokinase (Homo sapiens, UniProt P00749).
T4 construct: purchased Mochida Pharmaceutical Urokinase 60,000 (60,000 U/vial)
Put plainly: Assay for inhibitory activity against urokinase (synthetic substrate MUK-34). To be noted: for IC50: MUK-34, pH 8.20, 37° C.
Excerpt: as §1, §2
Assay For Inhibitory Activity Against Urokinase
An aqueous solution (0.1 ml) of […] the inhibitor was added to 0.3 ml of buffer (150 mM sodium chloride aqueous solution containing 50 mM Tris, pH 8.20) and the mixture was heated for 5 minutes. Thereafter 0.1 ml of urokinase solution (containing 50 mM Tris, 150 mM sodium chloride aqueous solution and 0.1% BSA, pH 8.20) was added thereto, and the mixture was reacted for 5 minutes. Furthermore, 10 mM MUK-34 aqueous solution (0.1 ml) was added thereto, and the mixture was reacted for 5 minutes. Then 10% acetic acid aqueous solution (2.0 ml) was added to the mixture to terminate the reaction. Absorbance was measured at 405 nm and IC50 was determined by the method described above.

A further assay deals with T5, thrombin (Homo sapiens, UniProt P00734).
T5 construct: purchased Sankyo (Sankyo Color Test ATIII Assay Kit)
Briefly: Assay for inhibitory activity against thrombin (synthetic substrate PS-915). To be noted: for IC50: PS-915, pH 8.5, 37° C.
Excerpt: as §1, §2
Assay For Inhibitory Activity Against Thrombin
Each aqueous solution (0.1 ml) of the inhibitor having various concentrations was added to 0.4 ml of buffer (150 mM sodium chloride aqueous solution containing 150 mM Tris, pH 8.5) and the mixture was heated for 5 minutes. Then, 0.2 ml of the thrombin solution was added thereto and the mixture was reacted for 5 minutes. After 0.1 ml of PS-915 solution (10 mM) was added thereto, the mixture was again reacted for 5 minutes. Then, 2 ml of the color-forming termination solution was added to the reaction mixture. Then the mixture was allowed to stand for 10 minutes and absorbance was measured at 700 nm. IC50 was determined by the method described above.

A further assay deals with T6, plasmin (Homo sapiens, UniProt P00747).
T6 construct: purchased Sankyo (Sankyo Color Test α2 -PI Assay Kit Standard)
Put plainly: Assay for inhibitory activity against plasmin (synthetic substrate PS-994). To be noted: for IC50: PS-994, pH 7.8, 37° C.
Excerpt: as §1, §2
Assay For Inhibitory Activity Against Plasmin
Each aqueous solution (0.1 ml) of the inhibitor having various concentrations was added to 0.4 ml of buffer (150 mM sodium chloride aqueous solution containing 100 mM Tris, pH 7.8) and the mixture was heated for 5 minutes. After 0.2 ml of the plasmin solution was added thereto, the mixture was reacted for 5 minutes. After 0.1 ml of PS-994 solution (10 mM) was added thereto, and the mixture was again reacted for 5 minutes. Then, 2.0 ml of the color-forming termination solution was added to the reaction mixture. Then the mixture was allowed to stand for 10 minutes and absorbance was measured at 700 nm. A concentration of the inhibitor in the reaction system showing 1/2 absorbance that of the case where no inhibitor was present was determined to be IC50.

[1] abbreviates: Table 2, known compounds, read-out: IC50 Kallikrein.
The mark [2] stands for this setting: Table 2, known compounds, read-out: IC50 Trypsin.
Where [3] appears, read: Table 2, known compounds, read-out: IC50 Factor Xa.
The mark [4] stands for this setting: Table 2, known compounds, read-out: IC50 Urokinase.
Where [5] appears, read: Table 2, known compounds, read-out: IC50 Thrombin.
Setting [6] is: Table 2, known compounds, read-out: IC50 Plasmin.
Setting [7] is: Table 3, compounds of the invention, read-out: Kallikrein.
Where [8] appears, read: Table 3, compounds of the invention, read-out: Trypsin.
The mark [9] stands for this setting: Table 3, compounds of the invention, read-out: Factor.
[10] abbreviates: Table 3, compounds of the invention, read-out: Urokinase.
Where [11] appears, read: Table 3, compounds of the invention, read-out: Thrombin.
Where [12] appears, read: Table 3, compounds of the invention, read-out: Plasmin.

Structures can show the parent of a compound that is named as a salt. Where two headings read alike, the source gives them in different places. Where a SMILES comes first, the peptide text is derived from it. [ ]: non-standard residue; d: D form. The star is where a group is joined. Tos = Cc1ccc(S(=O)(=O)*)cc1

These results are taken from US5153176A, “Tripeptide derivatives and protease inhibitor composition comprising the same” (Nitto Boseki Co., Ltd., priority 1990, dated 1992).

T1 sequence (P03952 20-638): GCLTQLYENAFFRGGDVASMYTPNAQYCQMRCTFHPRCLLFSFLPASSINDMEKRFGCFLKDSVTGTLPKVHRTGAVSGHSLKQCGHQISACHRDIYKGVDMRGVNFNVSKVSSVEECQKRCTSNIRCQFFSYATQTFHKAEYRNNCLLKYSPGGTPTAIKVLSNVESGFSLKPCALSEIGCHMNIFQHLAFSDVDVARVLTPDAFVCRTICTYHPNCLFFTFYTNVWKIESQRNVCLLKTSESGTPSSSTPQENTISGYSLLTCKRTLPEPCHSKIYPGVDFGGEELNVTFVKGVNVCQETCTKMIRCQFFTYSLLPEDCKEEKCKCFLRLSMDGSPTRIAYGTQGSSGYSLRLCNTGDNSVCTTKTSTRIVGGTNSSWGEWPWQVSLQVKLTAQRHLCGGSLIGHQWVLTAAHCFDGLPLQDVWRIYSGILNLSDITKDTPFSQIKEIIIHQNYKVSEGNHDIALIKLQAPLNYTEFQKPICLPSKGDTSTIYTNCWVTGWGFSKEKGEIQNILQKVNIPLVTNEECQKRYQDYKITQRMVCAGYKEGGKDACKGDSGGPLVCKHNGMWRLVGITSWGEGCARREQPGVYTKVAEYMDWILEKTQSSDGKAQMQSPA
T6 sequence (P00747 581-810 limits assumed, species assumed): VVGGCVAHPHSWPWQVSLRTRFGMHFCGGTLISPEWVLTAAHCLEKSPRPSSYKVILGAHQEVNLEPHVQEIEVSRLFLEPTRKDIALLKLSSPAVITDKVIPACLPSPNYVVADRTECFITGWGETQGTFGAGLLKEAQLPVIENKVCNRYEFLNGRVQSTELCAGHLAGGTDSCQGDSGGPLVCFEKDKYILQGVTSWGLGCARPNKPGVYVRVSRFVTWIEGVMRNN
T6 sequence (P00747 97-580 partner limits assumed, species assumed): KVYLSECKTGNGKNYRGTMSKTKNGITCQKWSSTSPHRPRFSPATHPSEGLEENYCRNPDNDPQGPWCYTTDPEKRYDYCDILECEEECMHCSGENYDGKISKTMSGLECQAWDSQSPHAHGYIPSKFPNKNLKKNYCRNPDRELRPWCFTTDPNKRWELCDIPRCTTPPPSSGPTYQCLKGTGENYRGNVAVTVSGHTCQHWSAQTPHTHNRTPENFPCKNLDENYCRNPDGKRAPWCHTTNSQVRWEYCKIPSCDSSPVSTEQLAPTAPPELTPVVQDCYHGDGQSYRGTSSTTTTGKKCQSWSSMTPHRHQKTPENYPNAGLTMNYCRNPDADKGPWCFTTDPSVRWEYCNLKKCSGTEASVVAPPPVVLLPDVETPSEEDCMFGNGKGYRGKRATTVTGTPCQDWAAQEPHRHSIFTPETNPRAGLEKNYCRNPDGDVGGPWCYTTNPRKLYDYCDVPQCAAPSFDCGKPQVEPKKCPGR
T3 sequence (P00742 235-488 limits assumed): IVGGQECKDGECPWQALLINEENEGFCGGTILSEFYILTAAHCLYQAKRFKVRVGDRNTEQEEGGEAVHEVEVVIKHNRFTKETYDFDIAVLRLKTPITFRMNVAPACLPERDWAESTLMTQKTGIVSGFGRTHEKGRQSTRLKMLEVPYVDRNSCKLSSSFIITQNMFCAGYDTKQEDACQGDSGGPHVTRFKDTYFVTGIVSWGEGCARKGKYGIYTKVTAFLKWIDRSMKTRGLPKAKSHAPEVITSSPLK
T3 sequence (P00742 41-179 partner limits assumed): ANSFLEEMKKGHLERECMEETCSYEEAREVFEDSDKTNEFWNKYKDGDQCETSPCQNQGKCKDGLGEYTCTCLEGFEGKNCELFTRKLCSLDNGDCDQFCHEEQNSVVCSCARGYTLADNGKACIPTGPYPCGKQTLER

Take `CCOC(=O)c1ccc(OC(=O)CCCCCN=C(N)N)cc1` [Example A3, reference compound]: the IC50 stood at 4.5 µM at human plasma kallikrein (setting [1]); 1.9 µM on trypsin (setting [2]); 13 µM at human factor Xa (setting [3]); 1.1 µM on urokinase (setting [4]); 32 µM at thrombin (setting [5]); 40 µM at plasmin (setting [6]).
“N-ε-(p-toluoyl)-D-lysyl-L-prolyl-L-argininal sulfate [Example 7]”: the IC50 at human plasma kallikrein (setting [7]) was found to be 0.2 µM; on trypsin (setting [8]) it was 0.011 µM; on human factor Xa (setting [9]), 4.8 µM; at urokinase (setting [10]), 7.9 µM; at thrombin (setting [11]) it was 0.35 µM; on plasmin (setting [12]), 1 µM.
`N=C(N)NCCC[C@@H](C=O)NC(=O)[C@@H]1CCCN1C(=O)[C@H](N)Cc1ccccc1` [Example A2, D-phenylalanyl-L-prolyl-L-argininal, reference compound]: at human plasma kallikrein, the “inhibitory activity against kallikrein (in words)” value is listed as “do not strongly inhibit”. Moreover, the IC50 on human plasma kallikrein (setting [1]) amounted to 31 µM; on trypsin (setting [2]) it was 0.069 µM; at human factor Xa (setting [3]), 25 µM; on urokinase (setting [4]), 42 µM; on thrombin (setting [5]), 0.025 µM; on plasmin (setting [6]), 19 µM. Further, the “inhibitory activity against trypsin (in words)” value on trypsin was “inhibit”. Also, on human factor Xa, the “inhibitory activity against factor Xa (in words)” value is given as “do not strongly inhibit”. The “inhibitory activity against urokinase (in words)” value against urokinase is “do not strongly inhibit”. Moreover, at thrombin, the “inhibitory activity against thrombin (in words)” value is given as “inhibit”. Further, at plasmin, the “inhibitory activity against plasmin (in words)” value is “do not strongly inhibit”.
Consider “N-α-N-ε-di(p-tosyl)-D-lysyl-L-prolyl-L-argininal1/2 sulfate [Example 17]”, for which the IC50 on human plasma kallikrein (setting [7]) came out at 0.038 µM; on trypsin (setting [8]), 0.035 µM; at human factor Xa (setting [9]), 0.46 µM; at urokinase (setting [10]), 3.5 µM; at thrombin (setting [11]), 0.63 µM; on plasmin (setting [12]), 0.06 µM.
As for `CC(=O)N[C@@H](CC(C)C)C(=O)N[C@@H](CC(C)C)C(=O)N[C@H](C=O)CCCNC(=N)N` [Example A1, acetyl-L-leucyl-L-leucyl-argininal, reference compound], the “inhibitory activity against kallikrein (in words)” value against human plasma kallikrein is on record as “do not strongly inhibit”. Besides, the “inhibitory activity against trypsin (in words)” value against trypsin is listed as “inhibit”. In addition, the “inhibitory activity against factor Xa (in words)” value against human factor Xa is recorded as “do not strongly inhibit”. Besides, the “inhibitory activity against urokinase (in words)” value on urokinase is “do not strongly inhibit”. Further, the “inhibitory activity against plasmin (in words)” value against plasmin is recorded as “do not strongly inhibit”.
For the molecule “N-α-isobutoxycarbonyl-N-ε-(p-tosyl)-D-lysyl-L-prolyl-L-argininal 1/2 sulfate [Example 15]”, the IC50 was 0.037 µM at human plasma kallikrein (setting [7]); 0.022 µM at trypsin (setting [8]); 0.35 µM at human factor Xa (setting [9]); 1.4 µM at urokinase (setting [10]); 0.44 µM at thrombin (setting [11]); 0.059 µM on plasmin (setting [12]).
Take “N-ε-Ethanesulfonyl-D-lysyl-L-prolyl-L-argininal sulfate [Example 5]”: the IC50 on human plasma kallikrein (setting [7]) is 5.4 µM; at trypsin (setting [8]) it was 0.065 µM; on human factor Xa (setting [9]) it was 18 µM; at urokinase (setting [10]), 81 µM; on thrombin (setting [11]), 1.3 µM; on plasmin (setting [12]), 6.3 µM.
Turning to “N-α-(2-naphthalenesulfonyl)-N-ε-(p-tosyl)-D-lysyl-L-prolyl-L-argininal 1/2 sulfate [Example 20]”, the IC50 amounted to 0.17 µM on human plasma kallikrein (setting [7]); 0.043 µM on trypsin (setting [8]); 1.1 µM at human factor Xa (setting [9]); 6.6 µM on urokinase (setting [10]); 1.2 µM at thrombin (setting [11]); 0.25 µM at plasmin (setting [12]).
For “N-ε-acetyl-D-lysyl-L-prolyl-L-argininal sulfate [Example 10]”, the IC50 at human plasma kallikrein (setting [7]) is 4 µM; at trypsin (setting [8]) it was 0.06 µM; at human factor Xa (setting [9]), 4.1 µM; on urokinase (setting [10]), 40 µM; on thrombin (setting [11]) it was 0.33 µM; at plasmin (setting [12]), 4.3 µM.
For `Cc1ccc(S(=O)(=O)NCCCC[C@@H](N)C(=O)N2CCC[C@H]2C(=O)N[C@H](C=O)CCCNC(=N)N)cc1` [Example 1, N-ε-(p-tosyl)-D-lysyl-L-prolyl-L-argininal sulfate] (H-[dK](Tos)-Pro-Arg-aldehyde), the IC50 at human plasma kallikrein (setting [7]) is 0.029 µM; on trypsin (setting [8]), 0.048 µM; on human factor Xa (setting [9]) it was 6.5 µM; at urokinase (setting [10]) it was 35 µM; on thrombin (setting [11]) it was 0.3 µM; on plasmin (setting [12]) it was 1.5 µM.
With “N-ε-(2-naphthalenesulfonyl)-D-lysyl-L-prolyl-L-argininal sulfate [Example 3]”, the IC50 at human plasma kallikrein (setting [7]) worked out at 0.04 µM; on trypsin (setting [8]), 0.032 µM; at human factor Xa (setting [9]), 3.5 µM; at thrombin (setting [11]) it was 0.2 µM; at plasmin (setting [12]) it was 0.55 µM.
